Experimental data as given in patent publication US8491897B2, “Treatment of neuropathic pain using anti-thrombospondin antibodies” (The Board of Trustees of the Leland Stanford Junior …, priority 2007, dated 2013).
Entries after “also recorded” stand apart in the source; their conditions may differ.

Legend:
RGCs [1] = assay: RGC neurite outgrowth; conditions: data not shown
RGCs [2] = conditions: culture media containing GBP
barrel cortex = assay: Lesion-induced barrel cortex plasticity assay in neonatal mice; format: in vivo
Text: Understanding how the brain remodels its neuronal networks has been a major goal of neurobiology, as these processes underlie learning, memory and recovery from injury. Is astrocyte-induced synapse formation involved in remodeling neural circuits during development? To explore this question a well-established developmental plasticity paradigm, ‘the barrel cortex plasticity’ assay, was used. The nerves that innervate the major whiskers on the snout of the mouse project to the brain as a topographically ordered “somatotopic” map where afferent axons and target cells form ordered modules that recapitulate the structural organization seen on the whisker pad (Erzurumlu et al., The Anatomical Record 288:121-134, 2006). First, neurons of the trigeminal nerve innervate the mystacial vibrissae (whiskers) and send projections […]. These projections then form synapses at the brainstem (barrelettes) and their afferents then project and synapse at the thalamus (barreloids). […]
Two groups of neonatal mice were injected either with GBP or an equal volume of saline daily starting at P0 until P7. […] The mice were then sacrificed at P7 and their barrel structure corresponding to both the unlesioned “control” hemisphere and the lesioned hemisphere were analyzed. […]

[3] = test system: glutamatergic excitatory synapses in the cortex; assay: Synapse assay on mouse brain sections (VGlut2/PSD95 co-localized puncta in cortex) after GBP injection; format: in vivo, mice
Method: To determine whether GBP similarly blocks synapse formation in vivo, neonatal mice were injected with either GBP or saline, for the first postnatal week, which coincides with the initiation of synapse formation in the brain (see Experimental Procedures). […] At this age P7 glutamatergic synapses in the cortex are predominantly VGlut2 positive (Miyazaki et al., The Eur. J. of Neuroscience, 17:2563-2572, 2003). Therefore, co-immunostaining of sagital brain sections from (P7) saline or GBP-injected, mice was carried out with antibodies against VGlut2 and PSD95 and the number of co-localized pre- and post-synaptic puncta was quantified to determine synaptic density in the cortex of these mice. […] This difference was mainly due to a severe decrease in synapse number in half of the GBP injected animals. […] GBP injection affected both VGlut2 and PSD95 puncta by reducing their number, size, and co-localization (FIG. 7E) similar to its effect on synaptic puncta in vitro (FIG. 7A). […] It is interesting that the effect of GBP in vivo is an “all or none” effect rather than a gradual decrease in synapse number, and that only 50% of the mice responded to GBP injection. This could be due to a critical threshold concentration of GBP necessary to be effective in blocking synapse formation, which might only be achieved in some of the mice. In three repeated experiments, however, we observed only half of the mice were affected by GBP, even when we increased the total dosage and frequency from once a day to three times per day (see below and Experimental Procedures), and even though an inbred strain of mice was used.
Brains were immersed in 4% paraformaldehyde (PFA), fixed overnight at 4° C., and cryo-protected in 30% sucrose. For synaptic staining, tissue was embedded in a 2:1 mixture of 20% sucrose:OCT in PBS, and cryo-sectioned (12 μm). Sections were dried at 37° C., washed three times in PBS, and blocked with 20% normal goat serum (NGS, Invitrogen) in PBS 1 hr. Primary antibodies were diluted in PBS with 0.3% triton and 10% NGS as follows: PSD95 (Zymed, rabbit, 1:500) and VGlut1 and VGlut2 (Chemicon, guinea pig, 1:2500) incubated overnight at 4° C. […]
Three independent sagital brain sections per animal were stained with pre- and post-synaptic markers and 5 μm confocal scans were performed (optical section width 0.38 μm, 14 optical sections each) at the cortex. […] Merged single optical section images at 1 μm intervals were analyzed using the ImageJ-puncta analyzer option to count for number of co-localized pre- and post-synaptic puncta (5 optical sections per brain section and 15 total images per brain). Average synaptic density per imaged area was calculated for each condition. […]

naive rats = assay: TSP4-induced behavioral hypersensitivity in naive rats (paw withdrawal threshold, von Frey); format: in vivo, rat; conditions: 1 mg/rat bolus i.t., three days after TSP4 (45 ug/rat)
RGCs [4] = test system: RGCs

## NCC1(CC(=O)O)CCCCC1 [Gabapentin, 1-(aminomethyl)cyclohexaneacetic acid]
RGCs [1]
  neurite outgrowth: did not affect neurite outgrowth
RGCs [2]
  RGC survival: 66.5±4.1%
Barrel cortex; daily injection P0 to P7, listed as GBP
  barrel formation on unlesioned control side: typical barrels formed on the control side; also recorded: did not affect the barrel cortex formation
Barrel cortex; lesioned side, daily injection P0 to P7, C-row whisker lesion at P1
  proportion of injected mice with atypical/aberrant barrel cortex plasticity response: 50%
[3]; P7 mice
  proportion of injected mice that responded (severe reduction of synaptic puncta): 50%
[3]; P7 mice injected i.p. daily in first postnatal week, vs saline, listed as GBP
  density of VGlut2/PSD95 excitatory synapses in the cerebral cortex: significant decrease in the density of excitatory synapses; also recorded: significant decrease in the number of VGlut2-PSD95 synapses
[3]; in the half of the mice that responded
  VGlut2/PSD95 synaptic density relative to saline injected values: less than 10%
[3]; responding mice
  number of neurons: no apparent effect on the number of neurons
Naive rats
  effect on TSP4-induced behavioral hypersensitivity: blocked the pain-inducing effects of TSP4
RGCs [4]
  toxicity to the RGCs: not toxic
